Measured values reported in article PMC10176470, “Engaging a Non-catalytic Cysteine Residue Drives Potent and Selective Inhibition of Caspase-6” (Journal of the American Chemical Society, 2023).
Like-named read-outs stand apart in the source and are kept apart here.

Experiments:
Format in all cases: cell-based
[1] = molecular target: proteins of HEK293T cells transiently overexpressing caspase-6 (Homo sapiens, UniProt P14174); settings: Probe; protein MIF P14174
[2] = molecular target: proteins of HEK293T cells transiently overexpressing caspase-6 (Homo sapiens, UniProt P09429); settings: Probe; protein HMGB1 P09429
[3] = molecular target: proteins of HEK293T cells transiently overexpressing caspase-6 (Homo sapiens, UniProt O94919); settings: exp_ref Probe; protein ENDOD1 (O94919); analysis C6
[4] = molecular target: T1, proteins of HEK293T cells transiently overexpressing caspase-6 (Homo sapiens, UniProt Q9NQC3); settings: protein RTN4 (Q9NQC3), analysis C6
T1 sequence (Q9NQC3 1-1192): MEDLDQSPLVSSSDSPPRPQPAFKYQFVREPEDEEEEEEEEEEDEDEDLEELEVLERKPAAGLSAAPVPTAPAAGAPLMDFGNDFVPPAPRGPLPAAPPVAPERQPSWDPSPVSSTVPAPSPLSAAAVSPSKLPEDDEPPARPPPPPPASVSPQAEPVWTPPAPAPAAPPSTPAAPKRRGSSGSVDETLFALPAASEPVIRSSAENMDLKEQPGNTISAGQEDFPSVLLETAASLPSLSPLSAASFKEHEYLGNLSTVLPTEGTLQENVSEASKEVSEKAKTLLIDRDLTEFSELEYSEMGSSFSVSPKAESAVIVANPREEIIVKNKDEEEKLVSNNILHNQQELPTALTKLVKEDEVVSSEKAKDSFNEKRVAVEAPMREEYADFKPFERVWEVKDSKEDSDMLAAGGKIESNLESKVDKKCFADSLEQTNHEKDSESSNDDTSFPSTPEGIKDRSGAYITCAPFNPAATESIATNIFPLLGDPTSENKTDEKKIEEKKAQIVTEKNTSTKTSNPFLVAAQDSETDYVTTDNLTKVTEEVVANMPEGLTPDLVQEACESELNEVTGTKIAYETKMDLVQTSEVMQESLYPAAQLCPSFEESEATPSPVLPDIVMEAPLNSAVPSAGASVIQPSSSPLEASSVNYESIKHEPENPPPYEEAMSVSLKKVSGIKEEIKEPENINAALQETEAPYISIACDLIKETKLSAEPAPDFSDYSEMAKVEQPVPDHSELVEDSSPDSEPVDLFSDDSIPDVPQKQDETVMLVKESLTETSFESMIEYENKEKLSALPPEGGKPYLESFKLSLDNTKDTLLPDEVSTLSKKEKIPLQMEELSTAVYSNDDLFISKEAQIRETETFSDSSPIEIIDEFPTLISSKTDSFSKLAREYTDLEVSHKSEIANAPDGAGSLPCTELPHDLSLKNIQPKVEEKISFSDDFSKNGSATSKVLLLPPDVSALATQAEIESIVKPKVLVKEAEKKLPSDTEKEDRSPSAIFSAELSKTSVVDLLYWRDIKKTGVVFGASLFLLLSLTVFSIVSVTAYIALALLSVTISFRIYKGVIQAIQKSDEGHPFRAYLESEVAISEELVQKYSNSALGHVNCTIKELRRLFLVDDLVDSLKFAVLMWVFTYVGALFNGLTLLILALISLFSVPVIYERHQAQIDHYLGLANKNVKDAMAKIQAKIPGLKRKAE

[5] = molecular target: proteins of HEK293T cells transiently overexpressing caspase-6 (Homo sapiens, UniProt P51991); settings: exp_ref Probe; protein HNRNPA3 (P51991); analysis C6
[6] = molecular target: proteins of HEK293T cells transiently overexpressing caspase-6 (Homo sapiens, UniProt Q8TCD1); settings: protein C18orf32 (Q8TCD1)
[7] = molecular target: proteins of HEK293T cells transiently overexpressing caspase-6 (Homo sapiens, UniProt P54578); settings: Probe; protein USP14 P54578
[8] = molecular target: proteins of HEK293T cells transiently overexpressing caspase-6 (Homo sapiens, UniProt Q00839); settings: protein HNRNPU (Q00839)
[9] = molecular target: proteins of HEK293T cells transiently overexpressing caspase-6 (Homo sapiens, UniProt P00338); settings: Probe; protein LDHA P00338
[10] = molecular target: proteins of HEK293T cells transiently overexpressing caspase-6 (Homo sapiens, UniProt P40939); settings: exp_ref Probe; protein HADHA (P40939); analysis C6
[11] = molecular target: proteins of HEK293T cells transiently overexpressing caspase-6 (Homo sapiens, UniProt P38646); settings: protein HSPA9 (P38646)
[12] = molecular target: T2, proteins of HEK293T cells transiently overexpressing caspase-6 (Homo sapiens, UniProt Q13642)
T2 sequence (Q13642 1-323): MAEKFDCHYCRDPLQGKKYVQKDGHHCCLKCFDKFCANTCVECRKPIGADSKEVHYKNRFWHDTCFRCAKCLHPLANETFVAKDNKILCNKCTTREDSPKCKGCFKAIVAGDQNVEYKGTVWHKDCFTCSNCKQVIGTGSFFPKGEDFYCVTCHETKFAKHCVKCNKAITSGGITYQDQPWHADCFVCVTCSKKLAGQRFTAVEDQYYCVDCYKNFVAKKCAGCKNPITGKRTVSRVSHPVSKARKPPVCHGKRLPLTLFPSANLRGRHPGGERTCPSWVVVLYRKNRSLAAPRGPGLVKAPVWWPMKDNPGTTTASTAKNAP

[13] = molecular target: proteins of HEK293T cells transiently overexpressing caspase-6 (Homo sapiens, UniProt P10809); settings: protein HSPD1 (P10809)
Chain of proteins of HEK293T cells transiently overexpressing caspase-6 (Homo sapiens, UniProt P10809) (P10809 27-573): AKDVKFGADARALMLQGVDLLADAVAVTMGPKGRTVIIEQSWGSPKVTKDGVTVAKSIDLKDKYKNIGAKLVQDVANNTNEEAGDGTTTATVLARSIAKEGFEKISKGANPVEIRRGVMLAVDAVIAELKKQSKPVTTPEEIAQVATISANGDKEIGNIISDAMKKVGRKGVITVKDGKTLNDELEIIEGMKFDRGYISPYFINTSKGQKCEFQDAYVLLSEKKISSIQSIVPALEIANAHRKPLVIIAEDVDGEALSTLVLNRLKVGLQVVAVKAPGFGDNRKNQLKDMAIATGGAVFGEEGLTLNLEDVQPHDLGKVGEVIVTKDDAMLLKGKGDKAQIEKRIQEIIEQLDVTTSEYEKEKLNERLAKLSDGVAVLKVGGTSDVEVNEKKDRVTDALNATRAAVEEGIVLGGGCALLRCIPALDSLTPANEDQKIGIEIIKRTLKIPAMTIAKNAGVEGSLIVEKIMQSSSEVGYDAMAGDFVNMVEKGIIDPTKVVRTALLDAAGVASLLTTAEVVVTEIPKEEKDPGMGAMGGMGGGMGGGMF

Chain of proteins of HEK293T cells transiently overexpressing caspase-6 (Homo sapiens, UniProt P38646) (P38646 47-679): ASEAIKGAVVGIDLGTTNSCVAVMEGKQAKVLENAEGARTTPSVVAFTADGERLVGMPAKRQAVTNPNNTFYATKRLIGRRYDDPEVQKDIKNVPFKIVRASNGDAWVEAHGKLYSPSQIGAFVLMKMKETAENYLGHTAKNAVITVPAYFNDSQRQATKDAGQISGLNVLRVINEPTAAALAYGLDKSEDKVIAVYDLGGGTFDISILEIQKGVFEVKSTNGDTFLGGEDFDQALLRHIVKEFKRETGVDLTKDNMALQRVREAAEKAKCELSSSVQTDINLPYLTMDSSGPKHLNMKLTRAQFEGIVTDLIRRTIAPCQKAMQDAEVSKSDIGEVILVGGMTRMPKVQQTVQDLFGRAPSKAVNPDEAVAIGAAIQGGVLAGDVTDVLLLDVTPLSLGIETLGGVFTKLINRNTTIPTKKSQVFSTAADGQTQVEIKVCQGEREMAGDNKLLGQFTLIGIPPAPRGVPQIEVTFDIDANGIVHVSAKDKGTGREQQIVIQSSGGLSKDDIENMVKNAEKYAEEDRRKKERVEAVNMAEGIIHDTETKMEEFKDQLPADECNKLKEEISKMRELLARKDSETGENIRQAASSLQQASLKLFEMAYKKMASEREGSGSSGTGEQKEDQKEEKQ
Chain of proteins of HEK293T cells transiently overexpressing caspase-6 (Homo sapiens, UniProt Q8TCD1) (Q8TCD1 whole entry): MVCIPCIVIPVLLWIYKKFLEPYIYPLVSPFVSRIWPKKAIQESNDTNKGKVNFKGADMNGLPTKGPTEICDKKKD
Chain of proteins of HEK293T cells transiently overexpressing caspase-6 (Homo sapiens, UniProt Q00839) (Q00839 whole entry): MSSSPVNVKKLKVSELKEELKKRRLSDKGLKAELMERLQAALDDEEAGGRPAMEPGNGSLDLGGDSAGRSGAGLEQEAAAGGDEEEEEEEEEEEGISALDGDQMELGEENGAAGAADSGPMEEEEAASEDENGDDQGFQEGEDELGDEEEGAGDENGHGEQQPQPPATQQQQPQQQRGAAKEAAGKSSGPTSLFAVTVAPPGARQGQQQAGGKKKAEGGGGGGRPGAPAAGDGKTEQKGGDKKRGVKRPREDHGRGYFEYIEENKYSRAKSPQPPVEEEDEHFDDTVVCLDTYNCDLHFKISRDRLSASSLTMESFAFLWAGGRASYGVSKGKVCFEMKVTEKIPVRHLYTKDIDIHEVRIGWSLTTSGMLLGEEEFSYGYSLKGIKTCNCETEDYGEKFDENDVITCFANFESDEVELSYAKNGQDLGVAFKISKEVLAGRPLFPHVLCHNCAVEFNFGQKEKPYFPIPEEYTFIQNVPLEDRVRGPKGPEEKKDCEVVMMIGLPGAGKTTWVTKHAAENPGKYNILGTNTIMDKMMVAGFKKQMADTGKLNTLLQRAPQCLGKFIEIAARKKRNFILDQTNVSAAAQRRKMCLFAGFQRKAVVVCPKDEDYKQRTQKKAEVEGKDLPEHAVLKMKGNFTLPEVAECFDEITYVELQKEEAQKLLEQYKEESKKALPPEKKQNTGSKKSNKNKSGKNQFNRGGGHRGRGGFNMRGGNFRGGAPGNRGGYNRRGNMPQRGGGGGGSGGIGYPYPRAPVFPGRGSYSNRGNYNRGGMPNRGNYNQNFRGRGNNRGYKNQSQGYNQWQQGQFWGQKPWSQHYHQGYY
Chain of proteins of HEK293T cells transiently overexpressing caspase-6 (Homo sapiens, UniProt P54578) (P54578 whole entry): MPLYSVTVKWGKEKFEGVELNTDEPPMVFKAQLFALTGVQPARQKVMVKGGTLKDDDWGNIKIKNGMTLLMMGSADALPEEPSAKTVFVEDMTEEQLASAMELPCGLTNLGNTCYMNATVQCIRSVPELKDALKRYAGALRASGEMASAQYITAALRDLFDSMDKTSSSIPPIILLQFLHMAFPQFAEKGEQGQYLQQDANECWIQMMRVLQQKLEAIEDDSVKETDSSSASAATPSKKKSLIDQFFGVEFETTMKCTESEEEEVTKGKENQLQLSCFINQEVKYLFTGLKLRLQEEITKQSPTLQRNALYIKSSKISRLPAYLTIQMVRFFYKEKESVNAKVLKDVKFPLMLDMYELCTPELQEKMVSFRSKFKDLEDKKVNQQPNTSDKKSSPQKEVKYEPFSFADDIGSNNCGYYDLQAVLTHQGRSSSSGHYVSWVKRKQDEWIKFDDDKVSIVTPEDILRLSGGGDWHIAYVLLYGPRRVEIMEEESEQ
Chain of proteins of HEK293T cells transiently overexpressing caspase-6 (Homo sapiens, UniProt P14174) (P14174 whole entry): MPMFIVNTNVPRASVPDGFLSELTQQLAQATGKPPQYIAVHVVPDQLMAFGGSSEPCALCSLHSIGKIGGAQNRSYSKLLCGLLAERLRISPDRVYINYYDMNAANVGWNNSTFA
Chain of proteins of HEK293T cells transiently overexpressing caspase-6 (Homo sapiens, UniProt P09429) (P09429 whole entry): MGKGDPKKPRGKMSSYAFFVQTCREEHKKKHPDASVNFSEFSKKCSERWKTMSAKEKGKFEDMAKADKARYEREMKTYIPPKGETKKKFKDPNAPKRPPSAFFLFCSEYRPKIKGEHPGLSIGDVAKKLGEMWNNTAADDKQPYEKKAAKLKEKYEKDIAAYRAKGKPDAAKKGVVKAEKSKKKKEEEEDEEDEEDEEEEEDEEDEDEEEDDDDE
Chain of proteins of HEK293T cells transiently overexpressing caspase-6 (Homo sapiens, UniProt P40939) (P40939 37-763): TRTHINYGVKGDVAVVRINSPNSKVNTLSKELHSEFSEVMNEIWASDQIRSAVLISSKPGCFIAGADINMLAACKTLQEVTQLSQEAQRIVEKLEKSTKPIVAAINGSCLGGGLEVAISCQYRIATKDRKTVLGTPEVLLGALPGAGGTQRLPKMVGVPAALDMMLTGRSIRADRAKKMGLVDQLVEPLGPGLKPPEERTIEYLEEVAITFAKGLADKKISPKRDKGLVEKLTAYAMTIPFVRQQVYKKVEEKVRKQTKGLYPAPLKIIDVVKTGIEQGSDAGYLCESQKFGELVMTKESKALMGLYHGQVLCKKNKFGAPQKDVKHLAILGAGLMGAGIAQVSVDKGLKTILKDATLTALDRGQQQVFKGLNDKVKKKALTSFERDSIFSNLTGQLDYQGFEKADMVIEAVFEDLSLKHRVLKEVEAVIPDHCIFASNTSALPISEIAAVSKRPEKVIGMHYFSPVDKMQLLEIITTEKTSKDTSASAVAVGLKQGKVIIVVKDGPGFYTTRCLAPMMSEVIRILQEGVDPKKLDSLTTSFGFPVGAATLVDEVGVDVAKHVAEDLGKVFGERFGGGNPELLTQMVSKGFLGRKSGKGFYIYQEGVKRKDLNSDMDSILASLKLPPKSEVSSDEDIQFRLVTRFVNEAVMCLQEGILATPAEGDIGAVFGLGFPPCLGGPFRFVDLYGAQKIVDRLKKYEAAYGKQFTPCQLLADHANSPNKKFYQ
Chain of proteins of HEK293T cells transiently overexpressing caspase-6 (Homo sapiens, UniProt P51991) (P51991 whole entry): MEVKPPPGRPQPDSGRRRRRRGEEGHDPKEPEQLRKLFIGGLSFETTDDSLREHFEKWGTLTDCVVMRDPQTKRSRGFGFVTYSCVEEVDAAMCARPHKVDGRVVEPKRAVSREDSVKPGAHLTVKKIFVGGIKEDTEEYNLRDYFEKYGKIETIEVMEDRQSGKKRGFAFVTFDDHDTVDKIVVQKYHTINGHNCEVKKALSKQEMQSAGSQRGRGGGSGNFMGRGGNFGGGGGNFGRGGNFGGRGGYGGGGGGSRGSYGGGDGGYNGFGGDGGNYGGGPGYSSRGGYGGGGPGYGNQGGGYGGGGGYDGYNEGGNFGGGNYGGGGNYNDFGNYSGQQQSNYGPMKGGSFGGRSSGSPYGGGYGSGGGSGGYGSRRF
Chain of proteins of HEK293T cells transiently overexpressing caspase-6 (Homo sapiens, UniProt O94919) (O94919 22-500): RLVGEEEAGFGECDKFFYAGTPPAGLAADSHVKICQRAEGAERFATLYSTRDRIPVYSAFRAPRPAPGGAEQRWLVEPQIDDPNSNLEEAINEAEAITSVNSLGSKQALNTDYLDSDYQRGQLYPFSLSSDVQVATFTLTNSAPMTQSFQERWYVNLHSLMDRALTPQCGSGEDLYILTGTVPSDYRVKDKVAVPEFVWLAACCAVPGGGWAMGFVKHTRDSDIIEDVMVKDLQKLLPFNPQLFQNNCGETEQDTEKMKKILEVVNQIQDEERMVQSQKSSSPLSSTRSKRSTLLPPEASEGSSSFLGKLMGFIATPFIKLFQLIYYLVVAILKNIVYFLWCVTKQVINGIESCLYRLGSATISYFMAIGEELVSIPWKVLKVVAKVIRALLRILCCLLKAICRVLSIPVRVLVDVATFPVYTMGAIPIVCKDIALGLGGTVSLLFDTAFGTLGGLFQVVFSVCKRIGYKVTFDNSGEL

C#CCOc1ccc([C@@H]2C[C@@H](C(=O)Nc3ccc(OC(F)(F)F)cc3)CN(S(=O)(=O)C=C)C2)cc1 (relative stereo) [13-t]
enrich.exp.med [1]: -1.906 | enrich.exp.med [2]: -1.399 | enrich.exp.med [3]: -0.1243 | enrich.exp.med.lin ([4]; Expt Probe): 6.436 | enrich.exp.med.log2 ([4]; Expt Probe): 2.686 | enrich.exp.med ([4]; exp_ref Probe): 2.686 | enrich.exp.med [5]: 0.2112 | enrich.exp.med.lin [6]: 5.403 | enrich.exp.med.log2 [6]: 2.434 | enrich.exp.med.lin ([6]; Expt Probe, analysis C6): 5.403 | enrich.exp.med.log2 ([6]; Expt Probe, analysis C6): 2.434 | enrich.exp.med ([6]; exp_ref Probe, analysis C6): 2.434 | enrich.exp.med [7]: -0.5802 | enrich.exp.med ([8]; exp_ref Probe, analysis C6): 0.5889 | enrich.exp.med.lin [8]: 1.5041 | enrich.exp.med.log2 [8]: 0.5889 | enrich.exp.med [9]: -0.5222 | enrich.exp.med [10]: 0.4567 | enrich.exp.med ([11]; exp_ref Probe, analysis C6): 0.7965 | enrich.exp.med.lin [11]: 1.737 | enrich.exp.med.log2 [11]: 0.7965 | enrich.exp.med ([12]; Probe, protein FHL1 Q13642): -0.95 | enrich.exp.med.lin ([12]; protein FHL1 (Q13642)): 0.5176 | enrich.exp.med.log2 ([12]; protein FHL1 (Q13642)): -0.95 | enrich.exp.med ([13]; exp_ref Probe, analysis C6): 0.7989 | enrich.exp.med.lin [13]: 1.7398 | enrich.exp.med.log2 [13]: 0.7989
